*1 amine or outer side, *2 acyl side, *3 side chain or, on linkers, in order; H or OH if unused. Where a SMILES comes first, the peptide text is derived from it. [ ]: non-standard residue; d: D form. The star is where a group is joined. Nle(5E-ene,6-CO2Et) = CCOC(=O)/C=C/CC[C@H](N)C(=O)O; X7 = O=C(/C=C/CC[C@H](N[*:1])C(=O)[*:2])OCc1ccccc1; Tic = O=C(O)[C@@H]1Cc2ccccc2CN1; Cbz = O=C(OCc1ccccc1)*
Biological target: T1, recombinant human tissue transglutaminase (His6-rh-TG2) (Homo sapiens, UniProt P21980)
T1 sequence (P21980 1-687): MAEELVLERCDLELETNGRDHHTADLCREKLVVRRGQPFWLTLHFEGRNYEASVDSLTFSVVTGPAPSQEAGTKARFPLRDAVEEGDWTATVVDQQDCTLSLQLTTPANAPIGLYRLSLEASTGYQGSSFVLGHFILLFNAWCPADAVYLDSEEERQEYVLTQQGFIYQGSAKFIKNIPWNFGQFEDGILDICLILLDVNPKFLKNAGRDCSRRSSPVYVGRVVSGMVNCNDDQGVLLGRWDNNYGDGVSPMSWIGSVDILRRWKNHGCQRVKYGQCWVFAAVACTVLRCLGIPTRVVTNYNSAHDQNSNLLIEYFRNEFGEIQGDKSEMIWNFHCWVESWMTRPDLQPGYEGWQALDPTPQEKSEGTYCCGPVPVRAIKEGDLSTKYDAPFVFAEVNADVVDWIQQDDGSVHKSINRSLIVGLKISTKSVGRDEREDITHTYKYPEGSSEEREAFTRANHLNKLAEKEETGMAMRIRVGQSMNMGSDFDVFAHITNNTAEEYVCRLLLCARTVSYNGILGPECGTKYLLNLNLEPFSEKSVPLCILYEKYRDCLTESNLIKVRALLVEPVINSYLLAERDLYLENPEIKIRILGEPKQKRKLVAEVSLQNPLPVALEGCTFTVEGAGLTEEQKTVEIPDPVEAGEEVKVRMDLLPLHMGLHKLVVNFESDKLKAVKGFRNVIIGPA
Test: Inactivation of human tissue transglutaminase, fluorescence assay, IC50
Format: biochemical
Conditions: 5 min preincubation, 37° C.
Experimental: 250 μg of lyophilized his-tagged recombinant human tissue transglutaminase (His6-rh-TG2) are reconstituted by the addition of 150 μl of water (resulting buffer 50 mM of NaH2PO4, 150 mM of NaCl, pH=8).
A 10 mM inhibitor stock solution in DMSO is prepared and diluted with buffer (50 mM of Tris-HCl, 10 mM of CaCl2, 5 mM of DTT, pH=7.5, respectively) to the 20-fold of the concentration desired for the inhibition mixture (at least 1/50 dilution resulting in 2% DMSO concentration).
900 μl of an assay solution composed of 55.56 mM of Tris, 11.11 mM of CaCl2, 0.11% PEG8000, 5.56 mM of DTT, 5.56 mM of glycine methyl ester and 50 μM of Abz-APE(CAD-DNP)QEA-OH, (patent number:), pH=7.5 are placed in a cuvette and brought to a temperature of 37° C. in the measuring cell of a spectrophotometer. 50 μl of the respective inhibitor solution are added to said solution (resulting in a concentration of less than 0.2% of DMSO in the mixture).
7 μl of the transglutaminase solution reconstituted above are diluted with 51 μl of buffer (50 mM of Tris, 100 mM of NaCl, 5 mM of DTT, pH=7.5). 50 μl of said enzyme solution (10 μg His6-rhTG2) are added to the assay solution containing the respective inhibitor concentration. The mixture is incubated for 5 min at 37° C. before the measurement is performed. λexc=313 nm and λem=418 nm, 15 min)
The resulting enzyme activity was measured by analyzing the slope of the straight line obtained by the increase in fluorescence.
DMSO is used instead of inhibitor stock solution in order to determine the non-inhibited enzyme activity. IC50 values are determined by plotting the resulting enzyme activity against the logarithm of the inhibitor concentration. IC50 is defined as the concentration of an inhibitor at which enzyme activity is reduced to 50% after 5 min of preincubation.

Compound | IC50 (Table 2) [nM] | IC50 (Table 1) [nM]
COC(=O)C(CC(C)C)NC(=O)C1CCCN1C(=O)C(CCC(N)=O)NC(=O)C(CCC=CC#N)NC(=O)OCc1ccccc1 [Compound 3.2.11, N^α-benzyloxycarbonyl)-[(Z)-(L)-2-amino-6-cyano-hex-5-ene-dicarboxylic acid]-L-glutaminyl-L-prolinyl-L-leucine methyl ester] | 43000 | –
COC(=O)/C=C/CC[C@H](NC(=O)OCc1ccccc1)C(=O)N[C@@H](Cc1ccccc1)C(=O)N1CCC[C@H]1C(=O)N[C@@H](CC(C)C)C(=O)OC [Compound 13, N^α-benzyloxycarbonyl-{[(E)-(L)-6-amino-hept-2-enedicarboxylic acid]-1-methanoyl}-L-phenylalaninyl-L-prolinyl-L-leucine methyl ester] | – | 1500
CCOC(=O)/C=C/CC[C@H](NC(=O)OCc1ccccc1)C(=O)N[C@@H](CCC(N)=O)C(=O)N1CCC[C@H]1C(=O)N[C@@H](Cc1ccc(O)cc1)C(=O)OC [Compound 19, N^α-benzyloxycarbonyl-{[(E)-(L)-6-amino-hept-2-ene-dicarboxylic acid]-1-ethanoyl}-L-glutaminyl-L-proline-L-tyrosine methyl ester] (Cbz-[Nle(5E-ene,6-CO2Et)]QPY-OMe) | – | 2400
CCOC(=O)/C=C/CC[C@H](NC(=O)OCc1ccccc1)C(=O)N[C@@H](CCC(N)=O)C(=O)N1CCC[C@H]1C(=O)N[C@@H](CC(C)C)C(=O)OC [Compound 20, N^α-benzyloxycarbonyl-{[(E)-(L)-6-amino-hept-2-ene-dicarboxylic acid]-1-ethanoyl}-L-glutaminyl-L-prolinyl-L-leucine methyl ester] (Cbz-[Nle(5E-ene,6-CO2Et)]QPL-OMe) | – | 2000
N^α-acetyl-{[(E)-(L)-6-Amino-hept-2-ene dicarboxylic acid]-1-methanoyl}-L-phenylalaninyl-L-prolinyl-L-leucine methyl ester [Compound 12] | – | 1800
N^α-benzyloxycarbonyl)-[(Z)-(L)-2-amino-7-oxo-oct-5-ene-dicarboxylic acid]-L-glutaminyl-L-prolinyl-L-leucine methyl ester [Compound 3.2.10] | 56000 | –
[(E)-(L)-6-(2-Oxo-pyrrolidon-1-yl)hept-2-ene-dicarboxylic acid 1-ethanoyl]-L-valinyl-L-homoprolinyl-L-leucine methyl ester [Compound 16] | – | 22000
[(E)-(L)-6-(2-oxo-pyrrolidon-1-yl)-hept-2-ene-dicarboxylic acid-1-ethanoyl]-L-cyclohexylglycinyl-L-homoprolinyl-L-leucine methyl ester [Compound 17] | – | 35000
[(E)-(L)-6-(2-oxo-pyrrolidon-1-yl)-hept-2-ene-dicarboxylic acid-1-ethanoyl]-L-cyclohexylglycinyl-L-prolinyl-L-leucine methyl ester [Compound 18] | – | 28000

Further lines, results first:

IC50 (Table 2) [nM] | IC50 (Table 1) [nM] | Compound
– | 18000 | CCOC(=O)C=CC(=O)CC[C@H](NC(=O)OCc1ccccc1)C(=O)N[C@H](C(=O)N1CCC[C@H]1C(=O)N[C@@H](CC(C)C)C(=O)OC)C(C)C [Compound 9, N^α-benzyloxycarbonyl-{[L-7-amino-4-oxo-oct-2-ene-dicarboxylic acid]-1-ethanoyl}-L-valinyl-L-prolinyl-leucine methyl ester]
– | 330 | COC(=O)/C=C/CC[C@H](NC(C)=O)C(=O)N[C@@H](CCC(N)=O)C(=O)N[C@@H](CCC(=O)O)C(=O)N[C@@H](C)C(=O)OC [Compound 10, N^α-Acetyl-{[(E)-(L)-6-amino-hept-2-ene-dicarboxylic acid]-1-methanoyl}-L-glutaminyl-L-glutamyl-L-alanine methyl ester]
– | 2100 | COC(=O)/C=C/CC[C@H](NC(C)=O)C(=O)N[C@@H](CCC(N)=O)C(=O)N[C@@H](CCC(=O)O)C(=O)OC [Compound 11, N^α-acetyl-{[(E)-(L)-6-amino-hept-2-ene-dicarboxylic acid]-1-methanoyl}-L-glutaminyl-L-glutamyl methyl ester]
– | 1100 | COC(=O)/C=C/CC[C@H](NC(C)=O)C(=O)N[C@@H](Cc1ccc(F)cc1)C(=O)N1CCC[C@H]1C(=O)N[C@@H](CC(C)C)C(=O)OC [Compound 14, N^α-acetyl-{[(E)-(L)-6-amino-hept-2-ene-dicarboxylic acid]-1-methanoyl}-L-(p-fluoro)-phenylalaninyl-L-prolinyl-L-leucine methyl ester]
– | 880 | COC(=O)/C=C/CC[C@H](NC(=O)OCc1ccccc1)C(=O)N[C@@H](Cc1ccc(F)cc1)C(=O)N1CCC[C@H]1C(=O)N[C@@H](CC(C)C)C(=O)OC [Compound 15, N^α-benzyloxycarbonyl-{[(E)-(L)-6-amino-hept-2-ene-dicarboxylic acid]-1-methanoyl}-L-(p-fluoro)-phenylalaninyl-L-prolinyl-L-leucine methyl ester]
– | 70 | CCOC(=O)C=CC(=O)CC[C@H](NC(C)=O)C(=O)N[C@@H](CCC(N)=O)C(=O)N1CCC[C@H]1C(=O)N[C@@H](CC(C)C)C(=O)OC [Compound 22, N^α-acetyl-{[L-7-Amino-4-oxo-oct-2-ene-dicarboxylic acid]-1-ethanoyl}-L-glutaminyl-L-prolinyl-L-leucine methyl ester]
– | 215 | COC(=O)[C@H](CC(C)C)NC(=O)[C@@H]1Cc2ccccc2CN1C(=O)[C@H](CCC(N)=O)NC(=O)[C@H](CC/C=C/C(=O)OCc1ccccc1)NC(=O)[C@@H]1CCCN1C(=O)[C@H](CCC(N)=O)NC(=O)[C@@H]1CCCN1C(=O)OCc1ccccc1 [Compound 41] (Cbz-PQP[X7]Q[Tic]L-OMe)
– | 4000 | CC(=O)NCCC(=O)N1CCCC(C(=O)C(CC/C=C/C(=O)OC(C)C)N2Cc3nc[nH]c3CC2C(=O)NC(CNC(N)=O)C(=O)NC(CC(C)C)C(=O)N2CCCC2C(=O)NC(Cc2ccc(Oc3ccc(O)cc3)cc2)C(=O)O)C1 (centres unmarked) [Compound 42]
– | 8000 | N^α-(2-fluorobenzoyl)-{[L-7-amino-4-oxo-oct-2-ene-dicarboxylic acid]-1-methanoyl}-L-valinyl-L-4-fluoroprolinyl-leucine isopropyl ester [Compound 24]
– | 56 | N^α-(5-methylisoxazol-3-carbonyl)-{[L-7-amino-4-oxo-oct-2-ene-dicarboxylic acid]-1-isopropanoyl}-L-valinyl-L-prolinyl-leucine methyl ester [Compound 23]
– | 3200 | N^α-benzyloxycarbonyl-{[(E)-(L)-6-amino-hept-2-ene-dicarboxylic acid]-1-ethanoyl}-L-leucinyl-L-prolinyl-L-glutamine methyl ester [Compound 21]
